Measured values reported in patent US10590132B2, “Selective estrogen receptor down-regulators” (AstraZeneca AB, priority 2017, dated 2020).

test: Human plasma protein binding (equilibrium dialysis); format: in vitro ADME; settings: dialysis 18 hours

SMILES	Human plasma protein binding (% free)
C[C@@H]1Cc2c([nH]c3ccccc23)[C@@H](c2c(F)ccc(OCCNCCCF)c2Cl)N1CC(F)(F)CO [Example 85, 3-((1R,3R)-1-(2-chloro-6-fluoro-3-(2-((3-fluoropropyl)amino)ethoxy)phenyl)-3-methyl-1,3,4,9-tetrahydro-2H-pyrido[3,4-b]indol-2-yl)-2,2-difluoropropan-1-ol]	1.0
COc1ccc(OCCNCCCF)c(F)c1[C@@H]1c2[nH]c3ccc(F)cc3c2C[C@@H](C)N1CC(F)(F)CO [Example 86, 2,2-difluoro-3-((1R,3R)-6-fluoro-1-(2-fluoro-3-(2-((3-fluoropropyl)amino)ethoxy)-6-methoxyphenyl)-3-methyl-1,3,4,9-tetrahydro-2H-pyrido[3,4-b]indol-2-yl)propan-1-ol]	2.6
Cc1c(OCCNCCCF)ccc(F)c1[C@@H]1c2[nH]c3ccccc3c2C[C@@H](C)N1CCC#N [Example 87, 3-((1R,3R)-1-(6-fluoro-3-(2-((3-fluoropropyl)amino)ethoxy)-2-methylphenyl)-3-methyl-1,3,4,9-tetrahydro-2H-pyrido[3,4-b]indol-2-yl)propanenitrile]	1.6
C[C@@H]1Cc2c([nH]c3ccccc23)[C@@H](c2c(F)ccc(NCCNCCCF)c2F)N1CC(F)(F)F [Example 88, N1-(2,4-difluoro-3-((1R,3R)-3-methyl-2-(2,2,2-trifluoroethyl)-2,3,4,9-tetrahydro-1H-pyrido[3,4-b]indol-1-yl)phenyl)-N2-(3-fluoropropyl)ethane-1,2-diamine]	0.58
C[C@@H]1Cc2c([nH]c3ccc(F)cc23)[C@@H](c2c(F)ccc(NCCNCCCF)c2F)N1CC(F)(F)CO [Example 89, 3-((1R,3R)-1-(2,6-difluoro-3-((2-((3-fluoropropyl)amino)ethyl)amino)phenyl)-6-fluoro-3-methyl-1,3,4,9-tetrahydro-2H-pyrido[3,4-b]indol-2-yl)-2,2-difluoropropan-1-ol]	<3.4
COc1ccc(NCCNCCCF)c(F)c1[C@@H]1c2[nH]c3ccccc3c2C[C@@H](C)N1CC(F)(F)F [Example 90, N1-(2-fluoro-4-methoxy-3-((1R,3R)-3-methyl-2-(2,2,2-trifluoroethyl)-2,3,4,9-tetrahydro-1H-pyrido[3,4-b]indol-1-yl)phenyl)-N2-(3-fluoropropyl)ethane-1,2-diamine]	1.1
COc1cc(F)c(NCCNCCCF)cc1[C@@H]1c2[nH]c3ccccc3c2C[C@@H](C)N1CC(F)(F)F [Example 91, N1-(2-fluoro-4-methoxy-5-((1R,3R)-3-methyl-2-(2,2,2-trifluoroethyl)-2,3,4,9-tetrahydro-1H-pyrido[3,4-b]indol-1-yl)phenyl)-N2-(3-fluoropropyl)ethane-1,2-diamine]	0.93
C[C@@H]1Cc2c([nH]c3ccccc23)[C@@H](c2nccc(OCCNCCCF)c2Cl)N1CC(F)(F)F [Example 93, N-(2-((3-chloro-2-((1S,3R)-3-methyl-2-(2,2,2-trifluoroethyl)-2,3,4,9-tetrahydro-1H-pyrido[3,4-b]indol-1-yl)pyridin-4-yl)oxy)ethyl)-3-fluoropropan-1-amine]	0.34
C[C@@H]1Cc2c([nH]c3ccccc23)[C@@H](c2nccc(NCCNCCCF)c2F)N1CC(F)(F)F [Example 94, N1-(3-fluoro-2-((1S,3R)-3-methyl-2-(2,2,2-trifluoroethyl)-2,3,4,9-tetrahydro-1H-pyrido[3,4-b]indol-1-yl)pyridin-4-yl)-N2-(3-fluoropropyl)ethane-1,2-diamine]	7
Cc1c(NCCNCCCF)ccnc1[C@@H]1c2[nH]c3ccccc3c2C[C@@H](C)N1CC(F)(F)F [Example 95, N1-(3-fluoropropyl)-N2-(3-methyl-2-((1S,3R)-3-methyl-2-(2,2,2-trifluoroethyl)-2,3,4,9-tetrahydro-1H-pyrido[3,4-b]indol-1-yl)pyridin-4-yl)ethane-1,2-diamine]	4.6
Cc1c(OCCNCCCF)ccnc1[C@@H]1c2[nH]c3ccccc3c2C[C@@H](C)N1CC(F)(F)CO [Example 96, 2,2-difluoro-3-((1S,3R)-1-(4-(2-((3-fluoropropyl)amino)ethoxy)-3-methylpyridin-2-yl)-3-methyl-1,3,4,9-tetrahydro-2H-pyrido[3,4-b]indol-2-yl)propan-1-ol]	7.1
C[C@@H]1Cc2c([nH]c3ccccc23)[C@@H](c2nccc(OCCNCCCF)c2F)N1CC(F)(F)CO [Example 97, 2,2-difluoro-3-((1S,3R)-1-(3-fluoro-4-(2-((3-fluoropropyl)amino)ethoxy)pyridin-2-yl)-3-methyl-1,3,4,9-tetrahydro-2H-pyrido[3,4-b]indol-2-yl)propan-1-ol]	6.8
C[C@@H]1Cc2c([nH]c3ccccc23)[C@@H](c2cncc(OCCNCCCF)c2)N1CC(F)(F)F [Example 101, 3-fluoro-N-(2-((5-((1R,3R)-3-methyl-2-(2,2,2-trifluoroethyl)-2,3,4,9-tetrahydro-1H-pyrido[3,4-b]indol-1-yl)pyridin-3-yl)oxy)ethyl)propan-1-amine]	8.4
C[C@@H]1Cc2c([nH]c3ccccc23)[C@@H](c2ccnc(OCCNCCCF)c2)N1CC(F)(F)F [Example 102, 3-fluoro-N-(2-((4-((1R,3R)-3-methyl-2-(2,2,2-trifluoroethyl)-2,3,4,9-tetrahydro-1H-pyrido[3,4-b]indol-1-yl)pyridin-2-yl)oxy)ethyl)propan-1-amine]	1.4
Cc1c([C@@H]2c3[nH]c4ccccc4c3C[C@@H](C)N2CC(F)(F)CO)ccnc1OCCNCCCF [Example 103, 2,2-difluoro-3-((1R,3R)-1-(2-(2-((3-fluoropropyl)amino)ethoxy)-3-methylpyridin-4-yl)-3-methyl-1,3,4,9-tetrahydro-2H-pyrido[3,4-b]indol-2-yl)propan-1-ol]	2
C[C@@H]1Cc2c([nH]c3ccccc23)[C@@H](c2ccnc(OCCNCCCF)c2Cl)N1CC(F)(F)CO [Example 104, 3-((1R,3R)-1-(3-chloro-2-(2-((3-fluoropropyl)amino)ethoxy)pyridin-4-yl)-3-methyl-1,3,4,9-tetrahydro-2H-pyrido[3,4-b]indol-2-yl)-2,2-difluoropropan-1-ol]	2.8
Cc1ccc(OCCNCCCF)nc1[C@@H]1c2[nH]c3ccccc3c2C[C@@H](C)N1CC(F)(F)F [Example 105, 3-fluoro-N-(2-((5-methyl-6-((1S,3R)-3-methyl-2-(2,2,2-trifluoroethyl)-2,3,4,9-tetrahydro-1H-pyrido[3,4-b]indol-1-yl)pyridin-2-yl)oxy)ethyl)propan-1-amine]	1

Results, then the molecule that gave them:

Human plasma protein binding (% free)	SMILES
0.34	Cc1c([C@@H]2c3[nH]c4ccccc4c3C[C@@H](C)N2CC(F)(F)F)ccnc1OCCNCCCF [Example 106, 3-fluoro-N-(2-((3-methyl-4-((1R,3R)-3-methyl-2-(2,2,2-trifluoroethyl)-2,3,4,9-tetrahydro-1H-pyrido[3,4-b]indol-1-yl)pyridin-2-yl)oxy)ethyl)propan-1-amine]
1	C[C@@H]1Cc2c([nH]c3ccccc23)[C@@H](c2c(F)cnc(OCCNCCCF)c2F)N1CC(F)(F)F [Example 107, N-(2-((3,5-difluoro-4-((1R,3R)-3-methyl-2-(2,2,2-trifluoroethyl)-2,3,4,9-tetrahydro-1H-pyrido[3,4-b]indol-1-yl)pyridin-2-yl)oxy)ethyl)-3-fluoropropan-1-amine]
2.3	C[C@@H]1Cc2c([nH]c3ccccc23)[C@@H](c2c(F)cnc(OCCNCCCF)c2F)N1CC1(F)CC1 [Example 108, N-(2-((3,5-difluoro-4-((1R,3R)-2-((1-fluorocyclopropyl)methyl)-3-methyl-2,3,4,9-tetrahydro-1H-pyrido[3,4-b]indol-1-yl)pyridin-2-yl)oxy)ethyl)-3-fluoropropan-1-amine]
1.9	C[C@@H]1Cc2c([nH]c3ccc(F)cc23)[C@@H](c2c(F)cnc(OCCNCCCF)c2F)N1CC1(F)CC1 [Example 109, N-(2-((3,5-difluoro-4-((1R,3R)-6-fluoro-2-((1-fluorocyclopropyl)methyl)-3-methyl-2,3,4,9-tetrahydro-1H-pyrido[3,4-b]indol-1-yl)pyridin-2-yl)oxy)ethyl)-3-fluoropropan-1-amine]
1.4	C[C@@H]1Cc2c([nH]c3ccccc23)[C@@H](c2c(F)cnc(OCCNCCCF)c2Cl)N1CC(F)(F)CO [Example 111, 3-((1R,3R)-1-(3-chloro-5-fluoro-2-(2-((3-fluoropropyl)amino)ethoxy)pyridin-4-yl)-3-methyl-1,3,4,9-tetrahydro-2H-pyrido[3,4-b]indol-2-yl)-2,2-difluoropropan-1-ol]
1.5	COc1nnc(OCCNCCCF)cc1[C@@H]1c2[nH]c3ccccc3c2C[C@@H](C)N1CC(F)(F)F [Example 112, 3-fluoro-N-(2-((6-methoxy-5-((1R,3R)-3-methyl-2-(2,2,2-trifluoroethyl)-2,3,4,9-tetrahydro-1H-pyrido[3,4-b]indol-1-yl)pyridazin-3-yl)oxy)ethyl)propan-1-amine]
1.7	Cc1c(OCCNCCCF)ncnc1[C@@H]1c2[nH]c3ccccc3c2C[C@@H](C)N1CC(F)(F)F [Example 114, 3-fluoro-N-(2-((5-methyl-6-((1S,3R)-3-methyl-2-(2,2,2-trifluoroethyl)-2,3,4,9-tetrahydro-1H-pyrido[3,4-b]indol-1-yl)pyrimidin-4-yl)oxy)ethyl)propan-1-amine]
11	Cc1c(OCCNCCCF)ncnc1[C@@H]1c2[nH]c3ccccc3c2C[C@@H](C)N1CC(F)(F)CO [Example 115, 2,2-difluoro-3-((1S,3R)-1-(6-(2-((3-fluoropropyl)amino)ethoxy)-5-methylpyrimidin-4-yl)-3-methyl-1,3,4,9-tetrahydro-2H-pyrido[3,4-b]indol-2-yl)propan-1-ol]
